Patent publication US8580769B2, “Treatment of obesity, metabolic syndrome, and diabetes with protein kinase C inhibitors” (The United States of America as represented by the …, priority 2011, dated 2013)

Target: T1, Akt2 (Mus musculus, UniProt Q60823)
T1 construct: from tissue; host or cells: mouse liver, quadriceps muscle and abdominal adipose tissue
Experiment: tissue Akt activity in Het-MλKO mice
Assay type: in vivo
Settings: for Akt activation in adipose tissue / Akt activation in muscle: 7-day treatment s.c. (ATM 60 mg/kg; ICAPP 0.4 mg/kg)
Excerpt: In Vivo Mouse Studies: Male wild type (WT) and heterozygous muscle-specific PKC-λ knockout (Het-MλKO) mice were generated as described (Farese et al., J. Clin. Invest. 117:2289-2301, 2007) and used at 6-12 months of age, when the O/MS/T2DM phenotype in MλKO mice is well-developed. Mice were housed in a temperature-controlled environment with alternating 12-hour light and dark cycles, and fed ad libitum with standard chow (Harlan Teklad 20/18 with 5% fat, (10% of calories from fat)). All experimental procedures in mice were approved by the Institutional Animal Care and Use Committees of the Roskamp Institute and the University of South Florida College of Medicine, and the James A. Haley Veterans Administration Medical Center Research and Development Committee, Tampa, Fla.
(ICAPP; prepared by Southern Research, Birmingham, Ala.) at 0.4 mg/kg body weight. On the morning of the eighth day of inhibitor treatment, mice were injected intraperitoneally (IP) with 0.9% saline or saline containing 1 U insulin/kg body weight 15 minutes before sacrifice, an optimal time for studies of insulin stimulation of aPKC and Akt in liver, muscle and adipose tissues (Standaert et al., J. Biol. Chem. 279:24929-24934, 2004; Sajan et al., J. Lipid Res. 50:1133-1145, 2009; Sajan et al., Diabetologia 52:1197-1207, 2009; Farese et al., J. Clin. Invest. 117:2289-2301, 2007). After killing, blood, liver, quadriceps muscle and abdominal adipose tissues were rapidly removed and homogenized in buffer with a POLYTRON® homogenizer.
Tissue and Immunoprecipitate Preparations: As previously described (Standaert et al., J. Biol. Chem. 279:24929-24934, 2004; Sajan et al., J. Lipid Res. 50:1133-1145, 2009; Sajan et al., Diabetologia 52:1197-1207, 2009; Farese et al., J. Clin. Invest. 117:2289-2301, 2007) hepatocytes and tissues from in vivo experiments were homogenized in ice-cold buffer containing 0.25 M sucrose, 20 mM Tris/HCl (pH 7.5), 2 mM EGTA, 2 mM EDTA, 1 mM phenylmethylsulfonyl fluoride (PMSF), 20 μg/ml leupeptin, 10 μg/ml aprotinin, 2 mM Na4P2O7, 2 mM Na3VO4, 2 mM NaF, and 1 μM microcystin. After centrifugation for 10 minutes at 700×g to remove unbroken cells, debris, nuclei, and floating fat, cell lysates were stored at −70° C. After addition of 1% TRITON® X-100, 0.6% Nonidet and 150 mM NaCl, lysates were cleared of insoluble materials by low-speed centrifugation and subsequently immunoprecipitated with antibodies that target: (a) aPKCs (rabbit polyclonal antiserum from Santa Cruz Biotechnologies (Santa Cruz, Calif.) that recognizes C-termini of both PKC-λ and PKC-ζ); and (b) Akt2 (Upstate Cell Signaling/Millipore, Billerica, Mass.). Immunoprecipitates were collected on Sepharose-AG beads (Santa Cruz Biotechnologies).
Akt2 Assay: Akt2 enzyme activity was measured with a kit obtained from Upstate Cell Signaling, as described (Standaert et al., J. Biol. Chem. 279:24929-24934, 2004; Sajan et al., J. Lipid Res. 50:1133-1145, 2009; Sajan et al., Diabetologia 52:1197-1207, 2009; Farese et al., J. Clin. Invest. 117:2289-2301, 2007). In brief, Akt2 was immunoprecipitated from lysates with rabbit polyclonal antibodies, collected on Sepharose-AG beads, and incubated as per kit directions. Akt1/2 activation was also assessed by immunoblotting for phosphorylation of serine-473.

T1 sequence (Q60823 whole entry): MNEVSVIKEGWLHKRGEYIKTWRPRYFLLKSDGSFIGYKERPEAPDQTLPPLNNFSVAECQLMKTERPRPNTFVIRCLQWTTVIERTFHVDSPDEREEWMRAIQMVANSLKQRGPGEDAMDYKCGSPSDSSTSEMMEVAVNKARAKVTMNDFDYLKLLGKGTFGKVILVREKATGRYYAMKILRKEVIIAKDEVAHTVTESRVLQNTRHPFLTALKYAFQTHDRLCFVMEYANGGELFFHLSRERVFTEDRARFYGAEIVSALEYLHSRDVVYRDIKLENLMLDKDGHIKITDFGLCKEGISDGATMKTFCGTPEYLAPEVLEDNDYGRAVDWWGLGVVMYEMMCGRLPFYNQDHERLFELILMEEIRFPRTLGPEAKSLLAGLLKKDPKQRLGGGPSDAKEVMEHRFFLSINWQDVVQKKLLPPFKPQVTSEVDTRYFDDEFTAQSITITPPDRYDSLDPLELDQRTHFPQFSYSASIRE

Row | Compound | Akt activation in adipose tissue (Het-MλKO mice) | Akt activation in muscle (Het-MλKO mice) | Akt activation/activity in liver (Het-MλKO mice, s.c. once daily (ATM 60 mg/kg; ICAPP 0.4 mg/kg; ICAP 0.5 mg/kg)) | Hepatic Akt activity (ICAP-treated Mλ-Het KO mice (n = 12), 0.5 mg/kg body weight/day x 8 days s.c., mean ± SEM) [cpm/immunoppt]
1 | O=C([O-])CC([S][Au])C(=O)[O-] (stereo not drawn) [ATM, aurothiomalate, reference compound] | increased or trended upward | increased or trended upward | increased or trended upward | 
2 | NC(=O)c1ncn([C@@H]2C[C@H](COP(=O)(O)O)[C@@H](O)[C@H]2O)c1N [ICAPP, 1H-imidazole-4-carboxamide, 5-amino-1-[2,3-dihydroxy-4-[(phosphonooxy)methyl]cyclopentyl]-[1R-(1α,2β,3β,4α)]] | increased significantly or trended upward | increased significantly or trended upward |  | 
3 | NC(=O)c1ncn([C@@H]2C[C@H](CO)[C@@H](O)[C@H]2O)c1N [ICAP, 1H-imidazole-4-carboxamide 5-amino-1-[2,3-dihydroxy-4-[hydroxymethyl]cyclopentyl]-[1R-(1α,2β,3β,4α)]] |  |  |  | 1151 ± 226
